Measured values reported in patent US20220226342A1, “COMPOSITIONS AND METHODS OF TREATING LIVER CANCERS” (The Johns Hopkins University, priority 2019, published 2022).

Key:
[1] = tested on: 6 HCC PDO lines; assay: Annexin V / 7AAD flow cytometry apoptosis assay; type: cell-based, human; conditions: 700 μM, 350 μM, 96 h
Method: (§1) FIG. 5A-5E. Apoptosis analysis of HCC PDOs treated with omacetaxine in vitro. Organoids were plate on 24 well plate, omacetaxine at 700 μM, 350 μM were added to cell culture medium for 96 h. Then cells were collected and subjected to the analysis below. (5A and 5C). […] (5B and 5D). Flow cytometry analysis of cleaved caspase 3 expression of omacetaxine treated HCC PDOs. […] The effects on proliferation were assessed to elucidate the omacetaxine mechanisms of action. […] To further understand the effects of omacetaxine on cancer cell proliferation and cell cycle, the inventors performed FACS analysis of Ki67 protein. Ki-67 is a nuclear protein expressed in proliferating cells (in all phases of the cell cycle except G0)^22,23. Furthermore, the higher expression of Ki67 has been linked to poorer disease free survival and overall survival in HCC^24. […] As caspase 3 is a key molecule in apoptosis, the inventors measured its activated (cleaved) fragment.

[2] = tested on: c-Myc; assay: oncoprotein staining of HCC PDX tumor frozen sections; type: in vivo, human; conditions: HCC PDX tumor (50 HCC PDX) vs control
Excerpt: (§2) FIG. 8A-8G. Omacetaxine inhibits tumor cell proliferation and increases apoptosis and suppressed HCC oncoprotein expression in vivo. (8A-8D) Immunofluorescent staining of Ki67 and cleaved caspase 3 expression in 26-3 PDX model. 8A-8B show the IF staining pictures, 8C-8D show the relative Ki67 or cleaved caspase 3 positive cell number in omacetaxine treated mice compared with control treatment groups. (8E-8G) Omacetaxine suppressed HCC oncoprotein: c-Myc, Beta-catenin and MET protein expression in 50 HCC PDX treated with Omacetaxine vs control.
(§3) Tumor masses from HCC PDX mice treated with omacetaxine and negative control, respectively, were utilized to prepare frozen sections, which were then stained for the c-Myc, MET and beta-catenin.

[3] = tested on: MET; assay: as above; type: in vivo, human; conditions: HCC PDX tumor (50 HCC PDX) vs control
Excerpt: as §2, §3

[4] = tested on: beta-catenin; assay: as above; type: in vivo, human; conditions: HCC PDX tumor (50 HCC PDX) vs control
Excerpt: as §2, §3

[5] = tested on: 6 HCC PDO lines; assay: cleaved caspase 3 flow cytometry; type: cell-based, human
Method: as §1, with “5C). Flow cytometry analysis of 4 HCC PDOs apoptosis using Annexin V/7AAD assay.” for “5C).”

[6] = tested on: 6 HCC PDO lines; assay: cell cycle analysis; type: cell-based, human
Method: FIG. 6A-6B. Cell cycle analysis of omacetaxine treated HCC PDOs. […] (6A) The histogram of cell cycle distributions.
The effects on proliferation were assessed to elucidate the omacetaxine mechanisms of action. […] To further understand the effects of omacetaxine on cancer cell proliferation and cell cycle, the inventors performed FACS analysis of Ki67 protein. Ki-67 is a nuclear protein expressed in proliferating cells (in all phases of the cell cycle except G0)^22,23. Furthermore, the higher expression of Ki67 has been linked to poorer disease free survival and overall survival in HCC^24. […] As caspase 3 is a key molecule in apoptosis, the inventors measured its activated (cleaved) fragment.

[7] = tested on: HCC 25-2; assay: IC50 in PDO line; type: cell-based; conditions: Homo sapiens
Method: (§4) The inventors tested omacetaxine at decreasing concentrations (10 μM, 1 μM, 100 nM, 10 nM and 1 nM) to calculate the half-maximal inhibitory concentration (IC50). […] The IC50 value for each of the 40 HCC PDO lines can be found in Table 2.

[8] = tested on: HCC 80-4; assay: IC50 in PDO line; type: cell-based; conditions: Homo sapiens
Method: as §4

[9] = tested on: HCC 83-3; assay: IC50 in PDO line; type: cell-based; conditions: Homo sapiens
Method: as §4

[10] = tested on: HCC 83-1; assay: IC50 in PDO line; type: cell-based; conditions: Homo sapiens
Method: as §4

[11] = tested on: HCC 35; assay: IC50 in PDO line; type: cell-based; conditions: Homo sapiens
Method: as §4

[12] = tested on: HCC 24; assay: IC50 in PDO line; type: cell-based; conditions: Homo sapiens
Method: as §4

[13] = tested on: HCC 80-1; assay: IC50 in PDO line; type: cell-based; conditions: Homo sapiens
Method: as §4

[14] = tested on: HCC 71-1; assay: IC50 in PDO line; type: cell-based; conditions: Homo sapiens
Method: as §4

[15] = tested on: HCC 26-7; assay: IC50 in PDO line; type: cell-based; conditions: Homo sapiens
Method: as §4

[16] = tested on: HCC 26-8; assay: IC50 in PDO line; type: cell-based; conditions: Homo sapiens
Method: as §4

[17] = tested on: HCC 50; assay: IC50 in PDO line; type: cell-based; conditions: Homo sapiens
Method: as §4

[18] = tested on: HCC71-3; assay: IC50 in PDO line; type: cell-based; conditions: Homo sapiens
Method: as §4

[19] = tested on: HCC 65-2; assay: IC50 in PDO line; type: cell-based; conditions: Homo sapiens
Method: as §4

[20] = tested on: HCC 77; assay: IC50 in PDO line; type: cell-based; conditions: Homo sapiens
Method: as §4

[21] = tested on: HCC 26-2; assay: IC50 in PDO line; type: cell-based; conditions: Homo sapiens
Method: as §4

[22] = tested on: HCC 57; assay: IC50 in PDO line; type: cell-based; conditions: Homo sapiens
Method: as §4

[23] = tested on: HCC 40; assay: IC50 in PDO line; type: cell-based; conditions: Homo sapiens
Method: as §4

[24] = tested on: HCC 71-4; assay: IC50 in PDO line; type: cell-based; conditions: Homo sapiens
Method: as §4

[25] = tested on: HCC 76; assay: IC50 in PDO line; type: cell-based; conditions: Homo sapiens
Method: as §4

[26] = FDA approved dosage, cited from earlier work

COC(=O)C[C@](O)(CCCC(C)(C)O)C(=O)O[C@@H]1C(OC)=C[C@]23CCCN2CCc2cc4c(cc2[C@H]13)OCO4 [omacetaxine, omacetaxine mepusuccinate]
early / late apoptosis (Annexin V, 7AAD) [1]: either early apoptosis, or late apoptosis, or both were increased | c-Myc expression in vivo [2]: downregulated | MET expression in vivo [3]: downregulated | beta-catenin expression in vivo [4]: downregulated | cleaved caspase 3 [5]: induced | cell cycle arrest ([6]; 6 HCC PDOs, dose-dependent): induces G0/G1 arrest | G0/G1 fraction with rising omacetaxine dose ([6]; all 6 HCC PDOs): around 90% | IC50 [7]: 11.7 nM | IC50 [8]: 3.18 nM | IC50 [9]: 8.85 nM | IC50 [10]: 17.7 nM | IC50 [11]: 13.1 nM | IC50 [12]: 148 nM | IC50 [13]: 80.1 nM | IC50 [14]: 7.29 nM | IC50 [15]: 1.41 nM | IC50 [16]: 37.8 nM | IC50 [17]: 29.8 nM | IC50 [18]: 1.51 nM | IC50 [19]: 7.4 nM | IC50 [20]: 46.1 nM | IC50 [21]: 118 nM | IC50 [22]: 14.1 nM | IC50 [23]: 15.8 nM | IC50 [24]: 9.98 nM | IC50 [25]: 35.5 nM | infectious complications, share of patients [26]: approximately 5% | main side effects ([26]; patients): hematologic depletion (thrombocytopenia, anemia, and neutropenia) and diarrhea
